pIC50: −log10 of the molar value.

Drawing on patent US9624224B2, “Inhibitors of Bruton's tyrosine kinase” (Pharmacyclics LLC, priority 2013, dated 2017), this text covers IC50 for 18 compounds.

What all share (format): biochemical
In one assay the target is T1, BTK (Homo sapiens, UniProt Q06187).
T1 construct: purified from insect cells as a full-length construct containing a N-terminal 6×-His tag; His6 (N); made in house; host or cells: insect cells (baculovirus, Sf21)
The experiment in a line: Btk in vitro inhibitory activity (TR-FRET, mobility shift or radiometric filter binding kinase assay). To be noted: determined using one of the methods outlined in Example 47a, 47b, and 47c. The method, then: (§1) Btk kinase activity is determined using a time-resolved fluorescence resonance energy transfer (TR-FRET) methodology. Measurements are performed in a reaction volume of 50 μL using 96-well assay plates. […] The reaction is quenched by the addition of 1.2 equivalents of EDTA (relative to divalent cation) in 25 μL of 1× Lance buffer (Perkin-Elmer). Streptavidin-APC (Perkin-Elmer) and Eu-labeled p-Tyr100 antibody (Perkin-Elmer) in 1× Lance buffer are added in a 25 μL volume to give final concentrations of 100 nM and 2.5 nM, respectively, and the mixture is allowed to incubate for one hour. The TR-FRET signal is measured on a multimode plate reader with an excitation wavelength (λEx) of 330 nm and detection wavelengths (λEm) of 615 and 665 nm. Activity is determined by the ratio of the fluorescence at 665 nm to that at 615 nm. For each compound, enzyme activity is measured at various concentrations of compound. Negative control reactions are performed in the absence of inhibitor in replicates of six, and two no-enzyme controls are used to determine baseline fluorescence levels. Inhibition constants, Ki(app), ware obtained using the program BatchKi (Kuzmic et al. (2000), Anal. Biochem. 286:45-50). IC50s are obtained according to the equation: IC50={Ki(app)/(1+[ATP]/Km^ATP)}+[E]total/2;
(§2) For all kinases, [ATP]=Km^ATP, [Btk]total=0.5 nM and [Lck]total=6 nM.
Kinase activity is measured in vitro using electrophoretic mobility shift assay. The kinase reactions are assembled in a total volume of 25 μL in 384 well plates. […] The reaction is incubated for one hour and is quenched by the addition of 45 μL of termination buffer (100 mM HEPES, pH7.5, 0.01% Triton X-100, 30 mM EDTA). The terminated reactions are analyzed using 12 channel LabChip® 3000 microfluidic detection instrument (Caliper Life Sciences). The enzymatic phosphorylation of the peptide results in a change in net charge, enabling electrophoretic separation of product from substrate peptide. As substrate and product peptides are separated, two peaks of fluorescence are observed. Change in the relative fluorescence intensity of the substrate and product peaks is the parameter measured, reflecting enzyme activity. In the presence of an inhibitor, the ratio between product and substrate is altered: the signal of the product decreases, while the signal of the substrate increases.
Activity in each sample is determined as the product to sum ratio (PSR): P/(S+P), where P is the peak height of the product peptide and S is the peak height of the substrate peptide. For each compound, enzyme activity is measured at various concentrations (12 concentrations of compound spaced by 3× dilution intervals). Negative control samples (0%-inhibition in the absence of inhibitor) and positive control samples (100%-inhibition, in the presence of 20 mM EDTA) are assembled in replicates of four and are used to calculate %-inhibition values for each inhibitor at each concentration. Percent inhibition (Pinh) is determined using following equation: Pinh=(PSR0%−PSRinh)/(PSR0%−PSR100%)*100,
where PSRmh is the product sum ratio in the presence of inhibitor, PSR0% is the average product sum ration in the absence of inhibitor and PSR100% is the average product sum ratio in 100%-inhibition control samples;
The IC50 values of inhibitors are determined by 4 parameter sigmoidal dose-response model fitting of the inhibition curves (Pinh versus inhibitor concentration) using XLfit 4 software.
Human Btk kinase (Genbank accession # NP_000052) was purified from insect cells as a full-length construct containing a N-terminal 6×-His tag. Btk kinase activity was determined using a radiometric filter binding assay. Measurements are performed in a low μL reaction volume 384-well assay plates. […]
(In general: Time-resolved FRET reads energy transfer from a long-lived donor to a nearby acceptor.)

Another assay has as its target EGFR (Homo sapiens, UniProt P00533). The assay is described as follows: EGFR kinase inhibition (in vitro kinase assay).
Another assay addresses Lck (Homo sapiens, UniProt P06239). The assay is described as follows: Lck kinase inhibition (in vitro kinase assay). The method, then:
as §1, §2

Sequence of EGFR (P00533 25-1210, species assumed): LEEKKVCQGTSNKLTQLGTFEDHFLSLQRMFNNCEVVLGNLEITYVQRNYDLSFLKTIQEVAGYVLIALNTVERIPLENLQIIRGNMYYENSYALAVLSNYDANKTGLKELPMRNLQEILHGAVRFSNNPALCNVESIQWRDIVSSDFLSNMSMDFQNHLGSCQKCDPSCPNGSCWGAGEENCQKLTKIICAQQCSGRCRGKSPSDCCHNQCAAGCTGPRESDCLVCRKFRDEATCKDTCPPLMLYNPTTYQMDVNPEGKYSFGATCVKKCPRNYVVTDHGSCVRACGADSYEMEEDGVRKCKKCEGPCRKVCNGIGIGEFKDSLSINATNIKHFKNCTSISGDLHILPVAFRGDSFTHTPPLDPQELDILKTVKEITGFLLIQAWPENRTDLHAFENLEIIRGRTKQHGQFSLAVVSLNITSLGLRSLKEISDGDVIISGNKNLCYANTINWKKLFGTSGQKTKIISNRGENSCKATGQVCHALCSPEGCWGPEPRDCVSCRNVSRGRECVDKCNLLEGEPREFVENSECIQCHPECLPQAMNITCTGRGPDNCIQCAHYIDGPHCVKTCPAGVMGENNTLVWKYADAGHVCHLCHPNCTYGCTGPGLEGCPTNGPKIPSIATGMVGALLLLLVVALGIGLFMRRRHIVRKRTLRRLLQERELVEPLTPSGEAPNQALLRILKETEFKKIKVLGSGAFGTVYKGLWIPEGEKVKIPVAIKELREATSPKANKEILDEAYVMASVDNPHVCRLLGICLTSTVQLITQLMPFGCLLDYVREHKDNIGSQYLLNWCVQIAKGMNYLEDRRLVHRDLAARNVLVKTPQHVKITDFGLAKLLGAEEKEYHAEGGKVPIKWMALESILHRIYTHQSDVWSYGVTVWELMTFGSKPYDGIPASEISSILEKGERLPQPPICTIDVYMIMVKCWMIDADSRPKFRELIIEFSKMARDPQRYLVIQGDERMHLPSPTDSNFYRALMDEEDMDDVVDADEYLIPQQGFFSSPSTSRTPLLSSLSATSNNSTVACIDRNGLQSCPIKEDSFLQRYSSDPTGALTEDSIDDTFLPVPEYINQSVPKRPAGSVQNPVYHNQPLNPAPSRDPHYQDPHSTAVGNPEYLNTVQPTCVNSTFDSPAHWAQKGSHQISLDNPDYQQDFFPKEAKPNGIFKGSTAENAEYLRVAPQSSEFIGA
Sequence of Lck (P06239 whole entry, species assumed): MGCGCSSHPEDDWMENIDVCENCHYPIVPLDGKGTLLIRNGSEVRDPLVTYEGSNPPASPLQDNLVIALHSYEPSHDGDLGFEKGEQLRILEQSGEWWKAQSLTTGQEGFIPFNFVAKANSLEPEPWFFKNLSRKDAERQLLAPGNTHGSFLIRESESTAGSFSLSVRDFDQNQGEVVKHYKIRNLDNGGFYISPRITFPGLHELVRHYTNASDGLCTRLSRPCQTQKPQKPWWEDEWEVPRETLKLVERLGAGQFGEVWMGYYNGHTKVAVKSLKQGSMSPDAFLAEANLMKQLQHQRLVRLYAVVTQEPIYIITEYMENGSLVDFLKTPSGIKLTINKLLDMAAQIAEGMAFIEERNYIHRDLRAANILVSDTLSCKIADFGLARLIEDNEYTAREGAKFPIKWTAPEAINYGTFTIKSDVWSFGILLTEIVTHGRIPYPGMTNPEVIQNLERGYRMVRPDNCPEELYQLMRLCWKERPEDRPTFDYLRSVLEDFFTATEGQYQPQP
T1 sequence (Q06187 whole entry): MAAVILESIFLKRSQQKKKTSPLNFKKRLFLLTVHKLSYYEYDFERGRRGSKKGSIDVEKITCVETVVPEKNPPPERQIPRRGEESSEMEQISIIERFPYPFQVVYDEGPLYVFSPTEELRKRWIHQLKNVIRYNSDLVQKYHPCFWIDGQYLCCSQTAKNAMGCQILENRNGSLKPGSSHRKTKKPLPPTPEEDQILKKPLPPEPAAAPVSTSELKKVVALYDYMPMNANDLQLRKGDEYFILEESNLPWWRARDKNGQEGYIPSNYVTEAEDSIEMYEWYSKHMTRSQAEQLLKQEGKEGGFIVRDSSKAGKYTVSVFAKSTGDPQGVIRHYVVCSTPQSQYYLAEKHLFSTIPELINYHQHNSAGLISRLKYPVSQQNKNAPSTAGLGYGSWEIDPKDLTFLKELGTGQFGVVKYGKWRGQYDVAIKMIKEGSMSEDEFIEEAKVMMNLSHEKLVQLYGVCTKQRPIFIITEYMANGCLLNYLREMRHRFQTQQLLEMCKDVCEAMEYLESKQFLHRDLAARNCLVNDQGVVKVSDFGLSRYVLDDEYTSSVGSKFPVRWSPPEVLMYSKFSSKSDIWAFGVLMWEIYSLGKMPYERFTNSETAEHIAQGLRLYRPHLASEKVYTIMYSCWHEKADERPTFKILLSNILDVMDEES

For orientation: pIC50 means the negative decadic logarithm of the IC50, by convention in mol/L. In the case of `CN(C/C=C/C(=O)N1CC[C@@H](n2nc(-c3ccc(C(=O)Nc4ncco4)cc3)c3c(N)ncnc32)C1)C1CC1` [Example 14, (R,E)-4-(4-amino-1-(1-(4-(cyclopropyl(methyl)amino)but-2-enoyl)pyrrolidin-3-yl)-1H-pyrazolo[3,4-d]pyrimidin-3-yl)-N-(oxazol-2-yl)benzamide], the pIC50 at BTK is above 7.00; against EGFR, below 5.00; on Lck, below 5.00.

`CN(C/C=C/C(=O)N1CC[C@@H](n2nc(-c3ccc(C(=O)Nc4cc(C#N)ccn4)cc3)c3c(N)ncnc32)C1)C1CC1` [Example 16, (R,E)-4-(4-amino-1-(1-(4-(cyclopropyl(methyl)amino)but-2-enoyl)pyrrolidin-3-yl)-1H-pyrazolo[3,4-d]pyrimidin-3-yl)-N-(4-cyanopyridin-2-yl)benzamide]: the pIC50 was above 7.00 on BTK, 5.00 to 6.00 at EGFR and 6.00 to 7.00 against Lck.

For the compound `Cc1ccnc(NC(=O)c2ccc(-c3nn([C@@H]4CCN(C(=O)/C=C/CN(C)C5CC5)C4)c4ncnc(N)c34)cc2)c1` [Example 1, (R,E)-4-(4-amino-1-(1-(4-(cyclopropyl(methyl)amino)but-2-enoyl)pyrrolidin-3-yl)-1H-pyrazolo[3,4-d]pyrimidin-3-yl)-N-(4-methylpyridin-2-yl)benzamide], the pIC50 was above 9.00 at BTK, 5.00 to 6.00 at EGFR and 6.00 to 7.00 on Lck.

Turning to `COc1cc(-c2nn([C@@H]3CCN(C(=O)/C=C/CN(C)C4CC4)C3)c3ncnc(N)c23)ccc1C(=O)Nc1cc(C)ccn1` [Example 5, (R,E)-4-(4-amino-1-(1-(4-(cyclopropyl(methyl)amino)but-2-enoyl)pyrrolidin-3-yl)-1H-pyrazolo[3,4-d]pyrimidin-3-yl)-2-methoxy-N-(4-methylpyridin-2-yl)benzamide], the results for the pIC50 on BTK, at EGFR and against Lck were above 7.00, 5.00 to 6.00 and 5.00 to 6.00, respectively.

`CN(C/C=C/C(=O)N1CCC[C@@H](n2nc(-c3ccc(C(=O)Nc4ccccn4)cc3)c3c(N)ncnc32)C1)C1CC1` [Example 34, (R,E)-4-(4-amino-1-(1-(4-(cyclopropyl(methyl)amino)but-2-enoyl)piperidin-3-yl)-1H-pyrazolo[3,4-d]pyrimidin-3-yl)-N-(pyridin-2-yl)benzamide]: the pIC50 on BTK was above 7.00.

For `CCCc1ccnc(NC(=O)c2ccc(-c3nn([C@@H]4CCCN(C(=O)/C=C/CN(C)C5CC5)C4)c4ncnc(N)c34)cc2)c1` [Example 37, (R,E)-4-(4-amino-1-(1-(4-(cyclopropyl(methyl)amino)but-2-enoyl)piperidin-3-yl)-1H-pyrazolo[3,4-d]pyrimidin-3-yl)-N-(4-propylpyridin-2-yl)benzamide], the pIC50 at BTK was above 9.00.

In the case of `CCCc1ccnc(NC(=O)c2ccc(-c3nn([C@@H]4CCCN(C(=O)/C=C/CN(C)C)C4)c4ncnc(N)c34)cc2)c1` [Example 43, (R,E)-4-(4-amino-1-(1-(4-(dimethylamino)but-2-enoyl)piperidin-3-yl)-1H-pyrazolo[3,4-d]pyrimidin-3-yl)-N-(4-propylpyridin-2-yl)benzamide], the pIC50 at BTK is above 9.00.

Consider `CN(C/C=C/C(=O)N1CC[C@@H](n2nc(-c3ccc(C(=O)Nc4ccccn4)cc3)c3c(N)ncnc32)C1)C1CC1` [Example 46, (R,E)-4-(4-amino-1-(1-(4-(cyclopropyl(methyl)amino)but-2-enoyl)pyrrolidin-3-yl)-1H-pyrazolo[3,4-d]pyrimidin-3-yl)-N-(pyridin-2-yl)benzamide], for which the pIC50 against Lck is 6.00 to 7.00.

Take `CN(C/C=C/C(=O)N1CCC[C@@H](n2nc(-c3ccc(C(=O)Nc4cc(C#N)ccn4)cc3)c3c(N)ncnc32)C1)C1CC1` [Example 38, (R,E)-4-(4-amino-1-(1-(4-(cyclopropyl(methyl)amino)but-2-enoyl)piperidin-3-yl)-1H-pyrazolo[3,4-d]pyrimidin-3-yl)-N-(4-cyanopyridin-2-yl)benzamide]: the pIC50 at BTK is above 9.00.

For `CC(C)c1ccnc(NC(=O)c2ccc(-c3nn([C@@H]4CCCN(C(=O)/C=C/CN(C)C5CC5)C4)c4ncnc(N)c34)cc2)c1` [Example 39, (R,E)-4-(4-amino-1-(1-(4-(cyclopropyl(methyl)amino)but-2-enoyl)piperidin-3-yl)-1H-pyrazolo[3,4-d]pyrimidin-3-yl)-N-(4-isopropylpyridin-2-yl)benzamide], the pIC50 on BTK is above 7.00.

Turning to `Cc1ccnc(NC(=O)c2ccc(-c3nn([C@@H]4CCCN(C(=O)/C=C/CN(C)C5CC5)C4)c4ncnc(N)c34)cc2)c1` [Example 35, (R,E)-4-(4-amino-1-(1-(4-(cyclopropyl(methyl)amino)but-2-enoyl)piperidin-3-yl)-1H-pyrazolo[3,4-d]pyrimidin-3-yl)-N-(4-methylpyridin-2-yl)benzamide], on BTK, the pIC50 was above 9.00.

For `CN(C)C/C=C/C(=O)N1CCC[C@@H](n2nc(-c3ccc(C(=O)Nc4cc(C(F)(F)F)ccn4)cc3)c3c(N)ncnc32)C1` [Example 42, (R,E)-4-(4-amino-1-(1-(4-(dimethylamino)but-2-enoyl)piperidin-3-yl)-1H-pyrazolo[3,4-d]pyrimidin-3-yl)-N-(4-(trifluoromethyl)pyridin-2-yl)benzamide], at BTK, the pIC50 was above 9.00.

On to `Cc1ccnc(NC(=O)c2ccc(-c3nn([C@@H]4CCCN(C(=O)/C=C/CN(C)C)C4)c4ncnc(N)c34)cc2)c1` [Example 41, (R,E)-4-(4-amino-1-(1-(4-(dimethylamino)but-2-enoyl)piperidin-3-yl)-1H-pyrazolo[3,4-d]pyrimidin-3-yl)-N-(4-methylpyridin-2-yl)benzamide], for which the pIC50 at BTK was above 9.00.

Turning to `CN(C/C=C/C(=O)N1CCC[C@@H](n2nc(-c3ccc(C(=O)Nc4cc(C(F)(F)F)ccn4)cc3)c3c(N)ncnc32)C1)C1CC1` [Example 36, (R,E)-4-(4-amino-1-(1-(4-(cyclopropyl(methyl)amino)but-2-enoyl)piperidin-3-yl)-1H-pyrazolo[3,4-d]pyrimidin-3-yl)-N-(4-(trifluoromethyl)pyridin-2-yl)benzamide], the negative logarithm of the IC50 (pIC50) at BTK is above 9.00.

With `CC(C)c1ccnc(NC(=O)c2ccc(-c3nn([C@@H]4CCCN(C(=O)/C=C/CN(C)C)C4)c4ncnc(N)c34)cc2)c1` [Example 44, (R,E)-4-(4-amino-1-(1-(4-(dimethylamino)but-2-enoyl)piperidin-3-yl)-1H-pyrazolo[3,4-d]pyrimidin-3-yl)-N-(4-isopropylpyridin-2-yl)benzamide], the pIC50 on BTK is above 9.00.

As for `CN(C)C/C=C/C(=O)N1CCC[C@@H](n2nc(-c3ccc(C(=O)Nc4ccccn4)cc3)c3c(N)ncnc32)C1` [Example 40, (R,E)-4-(4-amino-1-(1-(4-(dimethylamino)but-2-enoyl)piperidin-3-yl)-1H-pyrazolo[3,4-d]pyrimidin-3-yl)-N-(pyridin-2-yl)benzamide], the pIC50 at BTK was above 9.00.

Turning to `CCCc1ccnc(NC(=O)c2ccc(-c3nn([C@@H]4CCN(C(=O)/C=C/CN(C)C)C4)c4ncnc(N)c34)cc2)c1` [Example 33, (R,E)-4-(4-amino-1-(1-(4-(dimethylamino)but-2-enoyl)pyrrolidin-3-yl)-1H-pyrazolo[3,4-d]pyrimidin-3-yl)-N-(4-propylpyridin-2-yl)benzamide], the pIC50 on BTK was above 9.00.

For `CN(C)C/C=C/C(=O)N1CCC[C@@H](n2nc(-c3ccc(C(=O)Nc4cc(C#N)ccn4)cc3)c3c(N)ncnc32)C1` [Example 45, (R,E)-4-(4-amino-1-(1-(4-(dimethylamino)but-2-enoyl)piperidin-3-yl)-1H-pyrazolo[3,4-d]pyrimidin-3-yl)-N-(4-cyanopyridin-2-yl)benzamide], on BTK, the negative logarithm of the IC50 (pIC50) was above 9.00.
